Reference: patent publication US8192962B2, “Processes for detecting toxic substances” (Daikin Industries, Ltd., priority 2001, dated 2012)

Test system: Unknown protein yeast genes
Assay: DNA chip mRNA expression in yeast, unknown protein yeast genes (Table 1)
Format: cell-based, Saccharomyces cerevisiae S288C
Procedure: Yeast (Saccharomyces cerevisiae S288C (α SUC2mal mel gap2 CUP1)) were incubated at 25° C. on YPD medium (yeast extract 1%, polypepton 2%, glucose 2%). One of toxic chemical substances was added to the cells at logarithmic growth phase, and the cells were further incubated for two hours. Cells were cultured without any chemical substance in the same condition, and were used as control. Concentrations of the chemical substances were defined to inhibit the growth of the yeast but not lead to death.
After completion of the incubation, the culture was centrifuged to collect the cells. To the cells, sodium acetate buffer (50 mM sodium acetate, 10 mM EDTA, 1% SDS) was added, and the mixture was shaken at 65° C. for five minutes, followed by returning to room temperature, and obtaining the supernatant, of which the procedures were repeated two times. To the supernatant, ½ amount of a solution of phenol/chloroform was added, and the mixture was centrifuged to give a supernatant, which was added with an equal amount of chloroform, and the mixture was centrifuged to give a supernatant. To the supernatant, an equal amount of isopropanol containing 0.3 M sodium acetate was added, and the mixture was allowed to stand at room temperature for 30 minutes, after which the mixture was centrifuged to give a sediment of the whole RNAs. Seventy % ethanol was added to the sediment, and the mixture was again centrifuged to give a sediment, which was then dried and dissolved in water. mRNA was isolated from the whole RNAs as followings. In view of the fact that a poly A chain is attached to the 3′ terminus of mRNA, a polynucleotide having a poly T structure which was immobilized on the surface of latex beads was used to trap the mRNA, and then the mRNA was washed and eluted with spine column (Oligotex-dT30<Super>mRNA Purification Kit, Takara). Reverse transcription of the mRNA was conducted with a reverse transcriptase (Super Script II Reverse Transcriptase; catalogue No. 18064-014, GibcoBRL) using fluorescence-labeled nucleotides to give cDNAs that were introduced with Cy3-dUTP or Cy5-dUTP during the reverse transcription.
The labeled cDNAs were dissolved in TE buffer (10mM Tris-HCl/1 mM EDTA, pH8.0), and the solution was dropped on the DNA chip containing the whole genes of yeast (DNA Chip Research Inc. Japan) so that the cDNAs were hybridized on the DNA chip at 65° C. for over 12 hours. The fluoresces intensity of the DNA chip was read with a scanner, and the ratio relative to the fluorescence intensity resulting from the absence of chemical substance was estimated as the following, which is shown in Tables 1 to 9: […]

Question: `Oc1cc(Cl)c(Cl)cc1Cl` [(6), 2,4,5-trichlorophenol] was tested. Which “The level of expressed mRNA in the presence of chemical substance/The level of expressed mRNA in the absence of chemical substance” value (yeast gene YAL053W, incubated two hours with chemical substance) did it give?
Answer: 1.1

Question: What about the “The level of expressed mRNA in the presence of chemical substance/The level of expressed mRNA in the absence of chemical substance” value (yeast gene YBL048W) of the same compound?
Answer: 2.0

Question: And the “The level of expressed mRNA in the presence of chemical substance/The level of expressed mRNA in the absence of chemical substance” value (yeast gene YBL107C)?
Answer: 1.1

Question: What about the “The level of expressed mRNA in the presence of chemical substance/The level of expressed mRNA in the absence of chemical substance” value (yeast gene YDL072C, incubated two hours with chemical substance) of the same compound?
Answer: 1.5

Question: And the “The level of expressed mRNA in the presence of chemical substance/The level of expressed mRNA in the absence of chemical substance” value (yeast gene YDL146W)?
Answer: 0.7

Question: What about the “The level of expressed mRNA in the presence of chemical substance/The level of expressed mRNA in the absence of chemical substance” value (yeast gene YDL204W, incubated two hours with chemical substance) of the same compound?
Answer: 5.6

Question: And the “The level of expressed mRNA in the presence of chemical substance/The level of expressed mRNA in the absence of chemical substance” value (yeast gene YDL222C, incubated two hours with chemical substance)?
Answer: 1.4

Question: And the “The level of expressed mRNA in the presence of chemical substance/The level of expressed mRNA in the absence of chemical substance” value (yeast gene YDR057W)?
Answer: 0.7

Question: And the “The level of expressed mRNA in the presence of chemical substance/The level of expressed mRNA in the absence of chemical substance” value (yeast gene YDR330W, incubated two hours with chemical substance)?
Answer: 2.3

Question: And the “The level of expressed mRNA in the presence of chemical substance/The level of expressed mRNA in the absence of chemical substance” value (yeast gene YDR411C, incubated two hours with chemical substance)?
Answer: 0.8

Question: What about the “The level of expressed mRNA in the presence of chemical substance/The level of expressed mRNA in the absence of chemical substance” value (yeast gene YDR476C) of the same compound?
Answer: 3.1

Question: And the “The level of expressed mRNA in the presence of chemical substance/The level of expressed mRNA in the absence of chemical substance” value (yeast gene YDR511W, incubated two hours with chemical substance)?
Answer: 2.0

Question: What about the “The level of expressed mRNA in the presence of chemical substance/The level of expressed mRNA in the absence of chemical substance” value (yeast gene YDR545W, incubated two hours with chemical substance) of the same compound?
Answer: 1.0

Question: What about the “The level of expressed mRNA in the presence of chemical substance/The level of expressed mRNA in the absence of chemical substance” value (yeast gene YEL001C, incubated two hours with chemical substance) of the same compound?
Answer: 1.3

Question: What about the “The level of expressed mRNA in the presence of chemical substance/The level of expressed mRNA in the absence of chemical substance” value (yeast gene YER004W, incubated two hours with chemical substance) of the same compound?
Answer: 1.2

Question: What about the “The level of expressed mRNA in the presence of chemical substance/The level of expressed mRNA in the absence of chemical substance” value (yeast gene YER035W, incubated two hours with chemical substance) of the same compound?
Answer: 0.9

Question: What about the “The level of expressed mRNA in the presence of chemical substance/The level of expressed mRNA in the absence of chemical substance” value (yeast gene YER079W, incubated two hours with chemical substance) of the same compound?
Answer: 1.5

Question: And the “The level of expressed mRNA in the presence of chemical substance/The level of expressed mRNA in the absence of chemical substance” value (yeast gene YER106W, incubated two hours with chemical substance)?
Answer: 1.1

Question: What about the “The level of expressed mRNA in the presence of chemical substance/The level of expressed mRNA in the absence of chemical substance” value (yeast gene YER158C, incubated two hours with chemical substance) of the same compound?
Answer: 0.7

Question: What about the “The level of expressed mRNA in the presence of chemical substance/The level of expressed mRNA in the absence of chemical substance” value (yeast gene YER163C, incubated two hours with chemical substance) of the same compound?
Answer: 2.0

Question: What about the “The level of expressed mRNA in the presence of chemical substance/The level of expressed mRNA in the absence of chemical substance” value (yeast gene YER175C, incubated two hours with chemical substance) of the same compound?
Answer: 0.8

Question: What about the “The level of expressed mRNA in the presence of chemical substance/The level of expressed mRNA in the absence of chemical substance” value (yeast gene YFL006W, incubated two hours with chemical substance) of the same compound?
Answer: 1.2

Question: What about the “The level of expressed mRNA in the presence of chemical substance/The level of expressed mRNA in the absence of chemical substance” value (yeast gene YFL010C, incubated two hours with chemical substance) of the same compound?
Answer: 1.9

Question: And the “The level of expressed mRNA in the presence of chemical substance/The level of expressed mRNA in the absence of chemical substance” value (yeast gene YFL024C)?
Answer: 2.0

Question: And the “The level of expressed mRNA in the presence of chemical substance/The level of expressed mRNA in the absence of chemical substance” value (yeast gene YFL032W, incubated two hours with chemical substance)?
Answer: 0.6

Question: And the “The level of expressed mRNA in the presence of chemical substance/The level of expressed mRNA in the absence of chemical substance” value (yeast gene YFL046W)?
Answer: 0.7

Question: And the “The level of expressed mRNA in the presence of chemical substance/The level of expressed mRNA in the absence of chemical substance” value (yeast gene YGL037C, incubated two hours with chemical substance)?
Answer: 1.3

Question: What about the “The level of expressed mRNA in the presence of chemical substance/The level of expressed mRNA in the absence of chemical substance” value (yeast gene YGL047W, incubated two hours with chemical substance) of the same compound?
Answer: 1.5

Question: And the “The level of expressed mRNA in the presence of chemical substance/The level of expressed mRNA in the absence of chemical substance” value (yeast gene YGL053W, incubated two hours with chemical substance)?
Answer: 2.7

Question: What about the “The level of expressed mRNA in the presence of chemical substance/The level of expressed mRNA in the absence of chemical substance” value (yeast gene YGL059W) of the same compound?
Answer: 0.7

Question: What about the “The level of expressed mRNA in the presence of chemical substance/The level of expressed mRNA in the absence of chemical substance” value (yeast gene YGL121C) of the same compound?
Answer: 9.8

Question: What about the “The level of expressed mRNA in the presence of chemical substance/The level of expressed mRNA in the absence of chemical substance” value (yeast gene YGL199C, incubated two hours with chemical substance) of the same compound?
Answer: 0.7

Question: And the “The level of expressed mRNA in the presence of chemical substance/The level of expressed mRNA in the absence of chemical substance” value (yeast gene YGR024C)?
Answer: 0.7

Question: And the “The level of expressed mRNA in the presence of chemical substance/The level of expressed mRNA in the absence of chemical substance” value (yeast gene YGR101W, incubated two hours with chemical substance)?
Answer: 0.9

Question: What about the “The level of expressed mRNA in the presence of chemical substance/The level of expressed mRNA in the absence of chemical substance” value (yeast gene YGR110W) of the same compound?
Answer: 0.9

Question: And the “The level of expressed mRNA in the presence of chemical substance/The level of expressed mRNA in the absence of chemical substance” value (yeast gene YGR130C, incubated two hours with chemical substance)?
Answer: 0.9

Question: What about the “The level of expressed mRNA in the presence of chemical substance/The level of expressed mRNA in the absence of chemical substance” value (yeast gene YGR154C, incubated two hours with chemical substance) of the same compound?
Answer: 1.4

Question: What about the “The level of expressed mRNA in the presence of chemical substance/The level of expressed mRNA in the absence of chemical substance” value (yeast gene YGR221C, incubated two hours with chemical substance) of the same compound?
Answer: 3.0

Question: And the “The level of expressed mRNA in the presence of chemical substance/The level of expressed mRNA in the absence of chemical substance” value (yeast gene YHL042W)?
Answer: 0.7

Question: And the “The level of expressed mRNA in the presence of chemical substance/The level of expressed mRNA in the absence of chemical substance” value (yeast gene YHR029C)?
Answer: 2.7

Question: And the “The level of expressed mRNA in the presence of chemical substance/The level of expressed mRNA in the absence of chemical substance” value (yeast gene YHR138C, incubated two hours with chemical substance)?
Answer: 3.8

Question: And the “The level of expressed mRNA in the presence of chemical substance/The level of expressed mRNA in the absence of chemical substance” value (yeast gene YHR199C, incubated two hours with chemical substance)?
Answer: 1.1

Question: What about the “The level of expressed mRNA in the presence of chemical substance/The level of expressed mRNA in the absence of chemical substance” value (yeast gene YIL023C, incubated two hours with chemical substance) of the same compound?
Answer: 0.9

Question: What about the “The level of expressed mRNA in the presence of chemical substance/The level of expressed mRNA in the absence of chemical substance” value (yeast gene YIL041W, incubated two hours with chemical substance) of the same compound?
Answer: 1.0

Question: And the “The level of expressed mRNA in the presence of chemical substance/The level of expressed mRNA in the absence of chemical substance” value (yeast gene YIL087C, incubated two hours with chemical substance)?
Answer: 4.1

Question: And the “The level of expressed mRNA in the presence of chemical substance/The level of expressed mRNA in the absence of chemical substance” value (yeast gene YJL057C, incubated two hours with chemical substance)?
Answer: 1.4

Question: And the “The level of expressed mRNA in the presence of chemical substance/The level of expressed mRNA in the absence of chemical substance” value (yeast gene YJL066C, incubated two hours with chemical substance)?
Answer: 1.4

Question: And the “The level of expressed mRNA in the presence of chemical substance/The level of expressed mRNA in the absence of chemical substance” value (yeast gene YJL082W, incubated two hours with chemical substance)?
Answer: 0.2

Question: And the “The level of expressed mRNA in the presence of chemical substance/The level of expressed mRNA in the absence of chemical substance” value (yeast gene YJL144W)?
Answer: 1.7

Question: And the “The level of expressed mRNA in the presence of chemical substance/The level of expressed mRNA in the absence of chemical substance” value (yeast gene YJL151C, incubated two hours with chemical substance)?
Answer: 2.2

Question: And the “The level of expressed mRNA in the presence of chemical substance/The level of expressed mRNA in the absence of chemical substance” value (yeast gene YJL152W, incubated two hours with chemical substance)?
Answer: 1.5

Question: And the “The level of expressed mRNA in the presence of chemical substance/The level of expressed mRNA in the absence of chemical substance” value (yeast gene YJL161W, incubated two hours with chemical substance)?
Answer: 8.0

Question: What about the “The level of expressed mRNA in the presence of chemical substance/The level of expressed mRNA in the absence of chemical substance” value (yeast gene YJL163C) of the same compound?
Answer: 2.8

Question: And the “The level of expressed mRNA in the presence of chemical substance/The level of expressed mRNA in the absence of chemical substance” value (yeast gene YJL171C, incubated two hours with chemical substance)?
Answer: 2.7

Question: And the “The level of expressed mRNA in the presence of chemical substance/The level of expressed mRNA in the absence of chemical substance” value (yeast gene YJR008W, incubated two hours with chemical substance)?
Answer: 2.2

Question: And the “The level of expressed mRNA in the presence of chemical substance/The level of expressed mRNA in the absence of chemical substance” value (yeast gene YJR054W, incubated two hours with chemical substance)?
Answer: 0.7

Question: What about the “The level of expressed mRNA in the presence of chemical substance/The level of expressed mRNA in the absence of chemical substance” value (yeast gene YKL071W) of the same compound?
Answer: 18.6
